In patent publication US8735388B2, “Heterocyclic compounds with affinity to muscarinic receptors” (Abbvie B. V. A., priority 2007, dated 2014):
pEC50, pKi: −log10 of the molar value. Read-outs that look alike come from different tables or passages of the source.

Legend:
[1] = molecular target: T1, Muscarine M1 (GPCR-A-MA-ACH M1) (Homo sapiens, UniProt P11229); test: Muscarine M1 receptor binding, 3H-Pirenzepine; details: human M1, CHO cells, ligand 2 nM, 60 min/22° C., read-out: RB Musc. M1 3H-Pirenzepine pKi (converted)
T1 construct: expressed in transfected cells; host or cells: CHO cells
T1 sequence (P11229 1-460): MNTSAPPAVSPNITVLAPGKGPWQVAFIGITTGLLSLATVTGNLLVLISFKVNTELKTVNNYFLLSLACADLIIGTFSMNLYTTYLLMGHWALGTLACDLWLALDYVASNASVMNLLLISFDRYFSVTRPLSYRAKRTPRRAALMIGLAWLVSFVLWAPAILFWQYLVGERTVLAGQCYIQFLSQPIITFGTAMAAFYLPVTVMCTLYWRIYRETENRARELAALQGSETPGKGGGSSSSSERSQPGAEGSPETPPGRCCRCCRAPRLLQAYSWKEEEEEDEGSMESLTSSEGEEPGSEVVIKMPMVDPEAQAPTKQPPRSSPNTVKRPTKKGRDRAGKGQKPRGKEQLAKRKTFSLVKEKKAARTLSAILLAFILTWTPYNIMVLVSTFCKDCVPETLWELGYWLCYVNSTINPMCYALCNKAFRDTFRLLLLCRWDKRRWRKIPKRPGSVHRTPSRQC
Procedure, shortened: (§1)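 Human M1 ([3H]-pirenzepine), M3, and M4 ([3H]-4DAMP or [3H]-oxotremorine) receptor preparations incubated with radioligand and compound, first at 10 μM, then at 10-fold lower concentrations if inhibition exceeded 40%. Bound ligand separated by glass-fibre filtration and counted by scintillation. IC50 from Hill fit, converted to Ki via Cheng-Prusoff, reported as pKi.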

[2] = molecular target: T1, Muscarine M1 (GPCR-A-MA-ACH M1); test: Muscarine M1 cell-based functional assay (CHO cells, Ca2+ - FLIPR Fluorimetry); details: read-out: Cell funct. Musc. M1 Agonism pEC50 (converted)
[3] = molecular target: T2, Muscarine M4 (GPCR-A-MA-ACH M4) (Homo sapiens, UniProt P08173); test: Muscarine M4 receptor binding, 3H-Oxotremorine; details: for Ki: human M4, CHO cells, receptor binding, ligand 6 nM, 30 min/25° C., read-out: RB Musc. M4 3H-Oxotremorine pKi (converted)
T2 construct: expressed in transfected cells; host or cells: CHO cells
T2 sequence (P08173 1-479): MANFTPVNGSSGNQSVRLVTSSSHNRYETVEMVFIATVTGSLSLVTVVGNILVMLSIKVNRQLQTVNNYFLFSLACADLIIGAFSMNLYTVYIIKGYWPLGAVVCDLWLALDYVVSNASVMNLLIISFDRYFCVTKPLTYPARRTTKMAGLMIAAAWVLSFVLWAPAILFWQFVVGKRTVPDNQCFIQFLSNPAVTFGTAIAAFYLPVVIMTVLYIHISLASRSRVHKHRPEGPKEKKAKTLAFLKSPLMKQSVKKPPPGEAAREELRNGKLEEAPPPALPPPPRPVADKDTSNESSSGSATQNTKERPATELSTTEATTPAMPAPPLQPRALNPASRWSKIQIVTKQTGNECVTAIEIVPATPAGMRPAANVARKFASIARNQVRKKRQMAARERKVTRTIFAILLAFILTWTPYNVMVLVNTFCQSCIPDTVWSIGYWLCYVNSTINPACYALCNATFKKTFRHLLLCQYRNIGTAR
Procedure, shortened: as §1

[4] = molecular target: T2, Muscarine M4 (GPCR-A-MA-ACH M4); test: Muscarine M4 cell-based functional assay (CHO cells, Ca2+ - Aequorin luminescence); details: for EC50: human M4, CHO cells, agonist mode, reference agonist oxotremorine, read-out: Cell funct. Musc. M4 Agonism pEC50 (converted)
Procedure, shortened: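 CHO cells expressing human M4 were exposed to compound, with Ca2+ response read by aequorin luminescence. Compounds were first tested at 1 μM, then at 10-fold lower concentrations if active; stimulation or inhibition was relative to the reference agonist. EC50/IC50 came from Hill-equation fits.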

[5] = molecular target: T2, Muscarine M4 (GPCR-A-MA-ACH M4); test: Muscarine M4 receptor binding, 3H-4DAMP; details: human M4, CHO cells, ligand 0.2 nM, 60 min/22° C., read-out: RB Musc. M4 3H-DAMP pKi (converted)
Procedure, shortened: as §1

[6] = Stability in human liver homogenate (metabolic stability in vitro); type: in vitro ADME; details: read-out: t ½
Text: DÖRJE, F., WESS, J., LAMBRECHT, G., TACKE, R., […], E. and BRANN, M. R. (1991) Antagonist binding profiles of five cloned human muscarinic receptor subtypes. J. Pharmacol. Exp. Ther., 256: 727-733. • […], M. H. (1990) Rat hippocampal muscarinic autoreceptors are similar to the M2 (cardiac) subtype: comparison with hippocampal M1, atrial M2 and ileal M3 receptors. Brit. J. Pharmacol., 99: 753-761. • PERALTA, E. G., ASHKENAZI, A., WINSLOW, J. W., SMITH, D. H., […], J. and CAPON, D. J. (1987) Distinct primary structures, ligand-binding properties and tissue-specific expression of four human muscarinic acetylcholine receptors. EMBO. J., 6: 3923-3929. Determination of Metabolic Stability (In Vitro)
Method used according to procedures described by DI, L. et al., Journal of Biomolecular Screening, Vol. 8, No. 4, 453-462 (2003).

[7] = in words, background section; cited from earlier work
[8] = molecular target: T3, Muscarine M3 (GPCR-A-MA-ACH M3) (Homo sapiens, UniProt P20309); test: Muscarine M3 receptor binding
T3 construct: expressed in transfected cells; host or cells: CHO cells
T3 sequence (P20309 whole entry): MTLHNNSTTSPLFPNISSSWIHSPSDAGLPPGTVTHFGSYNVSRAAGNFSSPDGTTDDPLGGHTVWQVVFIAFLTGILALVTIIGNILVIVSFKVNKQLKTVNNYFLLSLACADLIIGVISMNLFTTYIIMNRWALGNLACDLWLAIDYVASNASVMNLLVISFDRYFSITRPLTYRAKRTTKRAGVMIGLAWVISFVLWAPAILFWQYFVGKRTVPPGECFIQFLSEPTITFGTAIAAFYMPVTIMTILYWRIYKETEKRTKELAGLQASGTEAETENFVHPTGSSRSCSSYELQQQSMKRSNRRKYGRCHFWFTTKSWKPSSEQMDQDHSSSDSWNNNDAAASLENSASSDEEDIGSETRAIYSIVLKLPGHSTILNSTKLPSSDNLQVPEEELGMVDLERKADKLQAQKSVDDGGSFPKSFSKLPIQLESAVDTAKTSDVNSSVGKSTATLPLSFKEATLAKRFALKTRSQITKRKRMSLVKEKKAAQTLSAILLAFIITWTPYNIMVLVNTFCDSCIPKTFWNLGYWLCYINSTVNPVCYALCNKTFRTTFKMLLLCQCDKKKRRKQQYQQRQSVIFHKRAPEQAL

[9] = molecular target: T4, Muscarine M2 (GPCR-A-MA-ACH M2) (Cavia porcellus, UniProt H0VRN8); test: Muscarine M2 functional assay, isolated organ (left atrium, electrically paced), agonist and antagonist mode; parameters: species or system Guinea Pig; details: for EC50: read-out: Cell funct. Musc. M2 Agonism pEC50 (converted)
T4 construct: from tissue; host or cells: guinea pig left atrium (electrically paced)
T4 sequence (H0VRN8 1-466): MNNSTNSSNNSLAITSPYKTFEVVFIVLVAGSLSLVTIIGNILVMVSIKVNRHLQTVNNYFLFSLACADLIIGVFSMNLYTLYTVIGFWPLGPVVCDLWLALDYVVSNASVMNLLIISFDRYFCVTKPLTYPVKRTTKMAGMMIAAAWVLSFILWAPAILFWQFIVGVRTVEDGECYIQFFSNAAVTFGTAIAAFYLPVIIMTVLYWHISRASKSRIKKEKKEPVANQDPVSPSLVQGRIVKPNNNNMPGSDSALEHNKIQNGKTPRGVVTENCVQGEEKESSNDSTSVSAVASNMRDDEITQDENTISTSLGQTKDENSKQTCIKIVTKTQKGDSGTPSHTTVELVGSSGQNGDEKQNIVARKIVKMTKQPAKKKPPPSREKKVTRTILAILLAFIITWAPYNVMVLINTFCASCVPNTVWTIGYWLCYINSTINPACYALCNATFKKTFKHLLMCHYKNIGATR

[10] = molecular target: T5, Muscarine M3 (GPCR-A-MA-ACH M3) (Cavia porcellus, UniProt H0W1Z3); test: Muscarine M3 functional assay, isolated organ (ileum), agonist and antagonist mode; parameters: species or system Guinea Pig; details: for EC50: read-out: Cell funct. Musc. M3 Agonism pEC50 (converted)
T5 construct: from tissue; host or cells: guinea pig ileum
T5 sequence (H0W1Z3 1-590): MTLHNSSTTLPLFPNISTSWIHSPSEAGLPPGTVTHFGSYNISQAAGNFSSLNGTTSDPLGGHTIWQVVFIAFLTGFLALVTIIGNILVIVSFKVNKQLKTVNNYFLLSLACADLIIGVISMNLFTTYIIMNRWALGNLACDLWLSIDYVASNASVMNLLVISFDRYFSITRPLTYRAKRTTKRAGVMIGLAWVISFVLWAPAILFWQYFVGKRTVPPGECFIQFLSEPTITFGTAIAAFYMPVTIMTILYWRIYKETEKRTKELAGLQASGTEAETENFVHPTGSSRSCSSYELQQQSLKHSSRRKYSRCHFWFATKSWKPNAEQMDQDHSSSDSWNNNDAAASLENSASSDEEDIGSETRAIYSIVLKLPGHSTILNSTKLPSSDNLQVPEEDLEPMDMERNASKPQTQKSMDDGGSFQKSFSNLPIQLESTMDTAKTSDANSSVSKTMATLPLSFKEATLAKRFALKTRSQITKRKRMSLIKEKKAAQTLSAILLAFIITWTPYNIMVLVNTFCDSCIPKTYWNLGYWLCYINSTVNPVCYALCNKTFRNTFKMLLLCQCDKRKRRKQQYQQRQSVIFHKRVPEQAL

[11] = molecular target: T6, Muscarine M2 (GPCR-A-MA-ACH M2) (Homo sapiens, UniProt P08172); test: Muscarine M2 receptor binding
T6 construct: expressed in transfected cells; host or cells: CHO cells
T6 sequence (P08172 1-466): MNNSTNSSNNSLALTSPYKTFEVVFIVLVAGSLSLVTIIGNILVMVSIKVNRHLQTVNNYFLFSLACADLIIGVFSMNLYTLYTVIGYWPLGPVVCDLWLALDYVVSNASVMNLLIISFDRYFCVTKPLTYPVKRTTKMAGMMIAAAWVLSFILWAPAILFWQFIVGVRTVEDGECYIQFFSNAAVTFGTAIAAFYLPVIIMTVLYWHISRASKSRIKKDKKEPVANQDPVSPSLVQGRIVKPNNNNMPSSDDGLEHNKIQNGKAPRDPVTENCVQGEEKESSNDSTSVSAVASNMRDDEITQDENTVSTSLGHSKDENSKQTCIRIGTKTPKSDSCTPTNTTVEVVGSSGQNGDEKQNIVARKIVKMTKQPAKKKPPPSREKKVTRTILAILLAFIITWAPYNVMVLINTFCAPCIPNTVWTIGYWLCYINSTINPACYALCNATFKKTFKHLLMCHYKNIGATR

[12] = human M1, CHO cells, agonist mode, reference agonist acetylcholine

Ki [1] [µM] | Ki [5] [µM] | Ki [3] [µM] | EC50 [4] [µM] | EC50 [2, 12] [µM] | SMILES | melting point [°C] | EC50 [2] [µM] | pKi [3] | pEC50 [4] | also measured
1.58 | 0.398 | 0.316 | > 10 |  | CCSc1c[nH]nc1C1=CCCN(C)C1 [Compound 22D, 3-(4-Ethylsulfanyl-1H-pyrazol-3-yl)-1,2,5,6-tetrahydro-1-methylpyridine] | 95 to 97 |  |  |  | 
0.398 | 0.316 | 0.1 | > 10 |  | CCCSc1c[nH]nc1C1=CCCN(C)C1 [Compound 22E, 3-(4-Propylsulfanyl-1H-pyrazol-3-yl)-1,2,5,6-tetrahydro-1-methylpyridine] | 111 |  |  |  | 
0.2 | 0.0501 | 0.2 | 0.316 | 0.0398 | CCCCCSc1c[nH]nc1C1=CCCN(C)C1 [Compound 22G, 3-(4-Pentylsulfanyl-1H-pyrazol-3-yl)-1,2,5,6-tetrahydro-1-methylpyridine] | 100 to 101 |  |  |  | half-life [6]: 50 min
1.58 | 0.398 | 0.251 | > 10 |  | CSc1c[nH]nc1C1=CCCN(C)C1 [Compound 22A, 3-(4-Methylsulfanyl-1H-pyrazol-3-yl)-1,2,5,6-tetrahydro-1-methylpyridine] | 131.5 |  |  |  | 
 |  |  |  |  | CCCCCCOc1nsnc1C1=CCCN(C)C1 [Xanomeline, reference compound] |  |  |  |  | half-life [6]: 17 min; (in vitro) metabolic stability [7]: relatively low
0.501 | 0.126 | 0.398 | 0.501 | 0.0794 | CN1CCC=C(c2n[nH]cc2SCCCC(F)(F)F)C1 [Compound 22B, 3-[4-(4,4,4-trifluoro-butylsulfanyl)-1H-pyrazol-3-yl]-1,2,5,6-tetrahydro-1-methylpyridine] |  |  |  |  | half-life [6]: 52 min
0.316 | 0.0398 | 0.0631 | 0.126 | 0.2 | CCCCSc1c[nH]nc1C1=CCCN(C)C1 [Compound 22F, 3-(4-Butylsulfanyl-1H-pyrazol-3-yl)-1,2,5,6-tetrahydro-1-methylpyridine] | 120 to 121 |  |  |  | 
0.251 | 0.0631 | 0.158 | > 10 | > 1 | CN1CCC=C(c2n[nH]cc2SCCCCCSc2c[nH]nc2C2=CCCN(C)C2)C1 [Compound 22C] |  |  |  |  | pKi ([8]; human M3, CHO cells, receptor binding): 7.50; EC50 [9]: > 1 µM; Kb ([9]; read-out: Cell funct. Musc. M2 Antagonism pA2 (converted)): > 1 µM; Kb [10]: > 1 µM; EC50 [10]: > 1 µM; pKi ([11]; human M2, CHO cells, receptor binding): 6.40

SMILES | Ki [1] [µM] | Ki [5] [µM] | Ki [3] [µM] | EC50 [4] [µM] | EC50 [2, 12] [µM] | melting point [°C] | EC50 [2] [µM] | pKi [3] | pEC50 [4] | also measured
CSc1c[nH]nc1C1CN2CCC1CC2 (centres unmarked) [Compound 49C, 3-(4-Methylsulfanyl-1H-pyrazol-3-yl)-1-azabicyclo[2.2.2]octane] | 1 | 0.126 |  |  |  | 145 to 147 | 0.0794 | 6.90 | 6.30 | 
CCCCCCSc1c[nH]nc1C1CN2CCC1CC2 (centres unmarked) [Compound 49F, 3-(4-Hexylsulfanyl-1H-pyrazol-3-yl)-1-azabicyclo[2.2.2]octane] | 0.251 | 0.0501 |  |  |  | 130 | 0.794 | 7.90 | 7.90 | pKi [8]: 7.00; Kb [9]: > 1 µM; EC50 [9]: > 1 µM; Kb [10]: > 1 µM; EC50 [10]: > 1 µM; pKi [11]: 6.40
CC(C)CCSc1c[nH]nc1C1CN2CCC1CC2 (centres unmarked) [Compound 49H, 3-[4-(3-Methyl-butylsulfanyl)-1H-pyrazol-3-yl]-1-azabicyclo[2.2.2]octane] | 0.158 | 0.0398 |  |  |  | 157 to 159 | 0.0501 | 7.50 | < 5.00 | 
CCCCCSc1c[nH]nc1C1CN2CCC1CC2 (centres unmarked) [Compound 49B, 3-(4-Pentylsulfanyl-1H-pyrazol-3-yl)-1-azabicyclo[2.2.2]octane] | 0.158 | 0.0251 |  |  |  | 142 to 145 | 0.01 | 8.10 | 8.20 | pKi [8]: 7.20; Kb [9]: > 1 µM; EC50 [9]: > 1 µM; Kb [10]: > 1 µM; EC50 [10]: > 1 µM; pKi [11]: 6.20
CCCCSc1c[nH]nc1C1CN2CCC1CC2 (centres unmarked) [Compound 49A, 3-(4-Butylsulfanyl-1H-pyrazol-3-yl)-1-azabicyclo[2.2.2]octane] | 0.126 | 0.0158 |  |  |  | 162 to 164 | 0.01 | 7.60 | 7.40 | 
